Tests used:
[1] = test system: yellow nutsedge (Cyperus esculentus); experiment: Herbicide effect by foliar spray on pot-grown yellow nutsedge in greenhouse (Test Example 1); format: in vivo; settings: evaluated 25 days after treatment, level 0-10
Description: (§1) Evaluation of phytotoxicity against a crop was shown by “no” when almost no phytotoxicity was observed, “low” when a low level phytotoxicity was observed, “medium” when a medium level phytotoxicity was observed and “high” when a high level phytotoxicity was observed.
(§2) A plastic pot of 11 cm in diameter and 8 cm in depth was filled with field soil. A tuber of yellow nutsedge (Cyperus esculentus) was planted and grown in a greenhouse for 21 days.
(§3) An emulsion of Compound A-1 was prepared by sufficiently mixing 5 parts of Compound A-1, 6 parts of Sorpol 3005×(surfactant, produced by Toho Chemical) and 89 parts of xylene.
(§4) Each of single use of an emulsion of Compound A-1, single use of an formulation of Chlorimuron-ethyl (commercial name: Classic, produced by Du Pont, containing 25% of Chlorimuron-ethyl), and a mixed composition of an emulsion of Compound A-1 and an formulation of Chlorimuron-ethyl, were diluted with water containing 1% Agri-dex (produced by Helena). Respective dilutions were uniformly sprayed from upper side onto foliages of yellow nutsedge grown as described above with a small sprayer such that the amounts of the active ingredients were the amounts shown in Table 4. […]
(§5) After the treatment, they were raised in a greenhouse for 25 days and the effect against weeds was evaluated. In addition, after 14 days of the treatment, the phytotoxicity to soybean was evaluated.

soybean = experiment: Phytotoxicity to soybean sown immediately after treatment (Test Example 1); format: in vivo; settings: evaluated after 14 days
Description: as §1, §2, §3, §4, §5

SMILES: CCOC(=O)c1ccccc1S(=O)(=O)NC(=O)Nc1nc(Cl)cc(OC)n1 [Chlorimuron-ethyl, ethyl 2-(4-chloro-6-methoxypyrimidin-2-ylcarbamoylsulfamoyl)benzoate]
- Herbicide Effect yellow nutsedge ([1]; 5 g/ha active ingredient): 1
- Herbicide Effect yellow nutsedge ([1]; 20 g/ha active ingredient): 2
- Phytotoxicity soybean (soybean; 5 g/ha active ingredient): no
- Phytotoxicity soybean (soybean; 20 g/ha active ingredient): no

Source: patent US7485601B2, “Herbicide composition” (Sumitomo Chemical Company, Limited, priority 2001, dated 2009)
